Results as given in article PMC6588243, “Fate of ptaquiloside—A bracken fern toxin—In cattle” (PLoS ONE, 2019).
Where “and” joins values, the source holds several entries; their conditions need not be identical. Equal entries are not always repeated. Entries after “also recorded” stand apart in the source; their conditions may differ. Where two headings read alike, the source gives them in different places.

What was measured:
[1] = Toxicokinetics of PTA and PTB in plasma after intravenous administration of PTA; assay type: in vivo, Jersey heifers; details: for k el / clearance / MRT / Vd: iv; for k el: read-out: λz terminal slope (converted)
Description: Two heifers (no’s 4848 and 4849) were used in a series of five experiments (Table 1) in a cross-over design including intravenous administration of pure PTA, oral administration of bracken extract and oral administration of dried bracken fern. At least 2 weeks elapsed between each experiment.
Intravenous administration of PTA. In Experiment 1 the dose of purified PTA (0.21 mg kg^-1 body weight (b.w.) / 0.527 μmoles kg^-1) was dissolved in 10 mL of sterile water in a brown glass vial 1 hour before administration and protected from light. The solution was injected through a catheter (Cavafix Certo: 45 cm, 16 G; B. Braun Melsungen AG, Melsungen, Germany) placed in the right jugular vein. Blood samples were collected through another catheter placed in the left jugular vein. Blood samples were collected in heparinized glass tubes before and at predetermined times (10, 20, 30, 45 min and 1, 2, 4, 6, 8, 12, 21 and 24 hours) after PTA administration. The blood was centrifuged for 15 min at 3000 g to separate plasma which then was stored immediately at -18°C until assayed within a week following the method of Aranha et al.. Urine was collected quantitatively in urinary bags (Ratiomed GmBH, München, Germany) through a Foley catheter (Rusch Silasil no 16; Teleflex, Milan, Italy) inserted into the bladder. Samples were collected before and at predetermined times (1, 2, 4, 6, 8, 12, 20 and 24 hours) after PTA administration. Two replicates from each sample were diluted 10 times (0.5 mL: 4.5 mL) with 0.1 M acetic acid, buffered to pH 5 with ammonium acetate and frozen immediately at -18°C until assayed within a week following the method of Aranha et al.. […] In this experiment, PTA was dissolved in sterile water immediately before injection.
Concentrations of PTA in plasma of individual animals were evaluated by non-compartmental analysis. Toxicokinetic variables were calculated using standard kinetic equations. The area under the curve (AUC) and the area under the first moment curve (AUMC) were determined using combined linear and natural logarithm trapezoidal rules. The terminal elimination rate was determined using the last three data points of the curve.
(§1) PTA and PTB were analysed by LC-MS after purification using solid phase extraction (SPE) columns as reported in Aranha et al.. The limit of quantification of PTA and PTB in plasma was 3.0 x 10^−3 μM and 9.30 x 10^−3 μM, respectively. Limit of quantifications in diluted urine was 13 x 10^−3 μM for PTA and 8.28 x 10^−3μM for PTB.

[2] = Urinary recovery of PTA and PTB after intravenous administration of PTA; assay type: in vivo, Jersey heifers; details: twelve hours after iv administration of PTA
Description: Intravenous administration of PTA. In Experiment 1 the dose of purified PTA (0.21 mg kg^-1 body weight (b.w.) / 0.527 μmoles kg^-1) was dissolved in 10 mL of sterile water in a brown glass vial 1 hour before administration and protected from light. The solution was injected through a catheter (Cavafix Certo: 45 cm, 16 G; B. Braun Melsungen AG, Melsungen, Germany) placed in the right jugular vein. Blood samples were collected through another catheter placed in the left jugular vein. Blood samples were collected in heparinized glass tubes before and at predetermined times (10, 20, 30, 45 min and 1, 2, 4, 6, 8, 12, 21 and 24 hours) after PTA administration. The blood was centrifuged for 15 min at 3000 g to separate plasma which then was stored immediately at -18°C until assayed within a week following the method of Aranha et al.. Urine was collected quantitatively in urinary bags (Ratiomed GmBH, München, Germany) through a Foley catheter (Rusch Silasil no 16; Teleflex, Milan, Italy) inserted into the bladder. […]
as §1

[3] = Presence of glucuronides and sulphates in urine (B-glucuronidase/arylsulfatase incubation); assay type: in vivo, Jersey heifers; details: urine after iv PTA
Description: The presence of glucuronides and sulphates was assessed by incubating 1 ml of buffered urine samples in 0.1 M acetic acid buffer (pH 5) with or without addition of 100 μl of B-glucuronidase/arylsulfatase at 37°C for 3 hours on a shaking water bath. Afterwards, an aliquot of 950 μl of each samples were cleaned on the Oasis HLB cartridges and analysed as described for urine samples [22].

[4] = Incubation of bracken extract in rumen liquid, in vitro; assay type: in vitro ADME, Jersey cows; details: for PTB concentration in rumen liquid: initial PTA 17 μM
Description: Samples of rumen contents were collected from two rumen fistulated Jersey cows. The cows were fed daily with 6 kg of complete feedingstuff (Danish Ragna Grønmix; Danish Agro, Karise, Denmark) and 2 kg of hay. Barley straw and water were provided ad libitum. The rumen liquid fraction was obtained by passing the digest through a 250 μm nylon filter. From each cow, 150 mL rumen liquid was pre-incubated at 37°C under CO2 atmosphere for 10 min before 5 mL of bracken extract was added in order to obtain an initial PTA concentration of 17 μM. PTA stability was assessed by removal of 2.5 mL sample for PTA determination after incubation for 0, 5, 15, 30, 60 and 120 min at 37 °C. The sample was immediately centrifuged for 3 min at 8,500 g and analysed following the method of Aranha et al.. The pH in rumen liquid was determined at the beginning and termination of the experiment.
Rumen liquid samples were cleaned on HLB cartridges and processed as plasma samples. PTA and PTB calibration curves were prepared in ruminal fluid deactivated by boiling for 5 minutes. The recovery of PTA and PTB in ruminal fluid was 74% (± 0.5%) and 80% (± 1.2%), respectively.

## CC1=C[C@]2(O[C@@H]3O[C@H](CO)[C@@H](O)[C@H](O)[C@H]3O)C[C@@H](C)C(=O)[C@@H]2[C@](C)(O)C12CC2 [PTA, (2'R,3a'R,4'S,7a'R)-4'-Hydroxy-2',4',6'-trimethyl-3'-oxo-2',3',3a',4'-tetrahydrospiro[cyclopropane-1,5'-inden]-7a'(1'H)-yl β-D-glucopyranoside]
[1]; PTA in plasma, iv PTA 0.141 μmoles kg^-1, heifer no 4849, head prints Experiment 2
  AUC0-∞: 0.42 µM·h
[1]; PTA in plasma, iv PTA 0.231 μmoles kg^-1, heifer no 4848, head prints Experiment 2
  AUC0-∞: 0.829 µM·h
[1]; PTA in plasma, iv PTA 0.527 μmoles kg^-1, heifer no 4848, Experiment 1
  AUC0-∞: 1.39 µM·h
[1]; PTA in plasma, iv PTA 0.527 μmoles kg^-1, heifer no 4849, Experiment 1
  AUC0-∞: 1.35 µM·h
[1]; female, Jersey, bovine, plasma, 0.141 μmoles kg^-1, iv PTA 0.141 μmoles kg^-1, heifer no 4849, head prints Experiment 2, plasma
  k el: 6.72e-05 s⁻¹
[1]; female, Jersey, bovine, plasma, 0.141 μmoles kg^-1, iv PTA 0.141 μmoles kg^-1, heifer no 4849, head prints Experiment 2, read-out: Cl (body) body clearance (converted)
  clearance: 5.57 mL/min/kg
[1]; female, Jersey, bovine, plasma, 0.141 μmoles kg^-1, iv PTA 0.141 μmoles kg^-1, heifer no 4849, head prints Experiment 2, read-out: MRT mean residence time
  MRT: 2.48 h
[1]; female, Jersey, bovine, plasma, 0.141 μmoles kg^-1, iv PTA 0.141 μmoles kg^-1, heifer no 4849, head prints Experiment 2, read-out: Vss apparent volume of distribution at steady-state
  Vd: 0.83 L/kg
[1]; female, Jersey, bovine, plasma, 0.231 μmoles kg^-1, iv PTA 0.231 μmoles kg^-1, heifer no 4848, head prints Experiment 2, plasma
  k el: 0.000105 s⁻¹
[1]; female, Jersey, bovine, plasma, 0.231 μmoles kg^-1, iv PTA 0.231 μmoles kg^-1, heifer no 4848, head prints Experiment 2, read-out: Cl (body) body clearance (converted)
  clearance: 4.72 mL/min/kg
[1]; female, Jersey, bovine, plasma, 0.231 μmoles kg^-1, iv PTA 0.231 μmoles kg^-1, heifer no 4848, head prints Experiment 2, read-out: MRT mean residence time
  MRT: 2.04 h
[1]; female, Jersey, bovine, plasma, 0.231 μmoles kg^-1, iv PTA 0.231 μmoles kg^-1, heifer no 4848, head prints Experiment 2, read-out: Vss apparent volume of distribution at steady-state
  Vd: 0.567 L/kg
[1]; female, Jersey, bovine, plasma, 0.527 μmoles kg^-1, iv PTA 0.527 μmoles kg^-1, heifer no 4848, Experiment 1, plasma
  k el: 4.25e-05 s⁻¹
[1]; female, Jersey, bovine, plasma, 0.527 μmoles kg^-1, iv PTA 0.527 μmoles kg^-1, heifer no 4848, Experiment 1, read-out: Cl (body) body clearance (converted)
  clearance: 6.33 mL/min/kg
[1]; female, Jersey, bovine, plasma, 0.527 μmoles kg^-1, iv PTA 0.527 μmoles kg^-1, heifer no 4848, Experiment 1, read-out: MRT mean residence time
  MRT: 2.99 h
[1]; female, Jersey, bovine, plasma, 0.527 μmoles kg^-1, iv PTA 0.527 μmoles kg^-1, heifer no 4848, Experiment 1, read-out: Vss apparent volume of distribution at steady-state
  Vd: 1.14 L/kg
[1]; female, Jersey, bovine, plasma, 0.527 μmoles kg^-1, iv PTA 0.527 μmoles kg^-1, heifer no 4849, Experiment 1, plasma
  k el: 3.19e-05 s⁻¹
[1]; female, Jersey, bovine, plasma, 0.527 μmoles kg^-1, iv PTA 0.527 μmoles kg^-1, heifer no 4849, Experiment 1, read-out: Cl (body) body clearance (converted)
  clearance: 6.48 mL/min/kg
[1]; female, Jersey, bovine, plasma, 0.527 μmoles kg^-1, iv PTA 0.527 μmoles kg^-1, heifer no 4849, Experiment 1, read-out: MRT mean residence time
  MRT: 3.84 h
[1]; female, Jersey, bovine, plasma, 0.527 μmoles kg^-1, iv PTA 0.527 μmoles kg^-1, heifer no 4849, Experiment 1, read-out: Vss apparent volume of distribution at steady-state
  Vd: 1.49 L/kg
[1]; female, Jersey, bovine, plasma, 0.21 mg/kg, iv PTA 0.21 mg kg^-1 b.w., average of two heifers, read-out: apparent volume of distribution at steady state (Vss)
  Vd: ~1.3 L/kg
[1]; female, Jersey, bovine, plasma, iv PTA, abstract and discussion, read-out: mean residence time (MRT), as summarised
  MRT: ≤ 4 h
[1]; female, Jersey, bovine, plasma, iv purified PTA, read-out: terminal half-life
  half-life: ≤ 6 h
[1]; female, Jersey, cattle, plasma, 0.21 mg/kg, iv PTA 0.21 mg kg^-1 b.w., average of two heifers, read-out: apparent volume of distribution at steady state (Vss)
  Vd: 1.3 L/kg
[1]; female, Jersey, cattle, plasma, 0.21 mg/kg, iv PTA 0.21 mg kg^-1 b.w., average of two heifers, read-out: average clearance (converted)
  clearance: 6.5 mL/min/kg
[1]; female, Jersey, cattle, plasma, 0.21 mg/kg, iv PTA 0.21 mg kg^-1 b.w., average of two heifers, read-out: average of the mean residence time (MRT)
  MRT: 3.4 h
[1]; female, Jersey, cattle, plasma, iv PTA, abstract and discussion, read-out: mean residence time (MRT), as summarised
  MRT: 4 h
[1]; iv PTA 0.21 mg kg^-1 b.w.
  time after which the plasma concentration was below the limit of quantification: 12 h
[2]
  dose recovered in urine as PTA: 30%
[3]
  conjugation with glucuronic acid or sulphate in urine: not conjugated with either glucuronic acid or sulphate
[4]; fresh rumen fluid, 37 °C, pH 6.6
  stability of PTA in fresh rumen fluid (in words): detectable in rumen fluid from cow no 1 only immediately after start; also recorded: lost within few minutes
[4]; fresh rumen liquid, 17 μM, 37 °C
  time during which PTA was observed in rumen liquid: ≤ 5 min

## Cc1cc2c(c(C)c1CCO)C(=O)[C@H](C)C2 [PTB, pterosin B]
[1]; PTB in plasma after iv PTA 0.141 μmoles kg^-1, heifer no 4849, head prints Experiment 2
  AUC0-∞: 0.319 µM·h
[1]; PTB in plasma after iv PTA 0.231 μmoles kg^-1, heifer no 4848, head prints Experiment 2
  AUC0-∞: 0.284 µM·h
[1]; PTB in plasma after iv PTA 0.527 μmoles kg^-1, heifer no 4848, Experiment 1
  AUC0-∞: 0.596 µM·h
[1]; PTB in plasma after iv PTA 0.527 μmoles kg^-1, heifer no 4849, Experiment 1
  AUC0-∞: 0.654 µM·h
[1]; female, Jersey, cattle, plasma, 0.21 mg kg^-1 b.w., iv PTA, first sampling point, read-out: time of peak plasma concentration of the metabolite after administration of PTA (converted)
  Tmax: 0.167 h
[1]; heifer no 4848, Experiments 1 and 4
  ratio of AUC PTB to AUC PTA: approx. 0.4
[1]; heifer no 4849, additional iv experiment with lower dose
  ratio of AUC PTB to AUC PTA: 0.76
[2]
  dose recovered in urine as PTB: 12%
[3]
  conjugation with glucuronic acid or sulphate in urine: not conjugated with either glucuronic acid or sulphate
[4]; 5 min after the start of incubation
  PTB as share of the added PTA: 10%
[4]; after 120 min, 37 °C
  PTB concentration in rumen liquid: 2.7 µM
[4]; final sampling (120 min)
  PTB as share of the added PTA: 16%
[4]; starting time, rumen liquid of two cows, 37 °C
  PTB concentration in rumen liquid: 1.35 µM and 1.62 µM
